Literature values as cited in article PMC2832019, “In Vitro Metabolic and Mitogenic Signaling of Insulin Glargine and Its Metabolites” (PLoS ONE, 2010).
Read-outs that look alike come from different tables or passages of the source.

What was measured:
[1] = in vivo, sc; cited from earlier work
[2] = in vivo; cited from earlier work
[3] = test system: insulin receptor; conditions: cited from earlier work
Excerpt: Accordingly, a good correlation between the potency in insulin receptor binding, induction of autophosphorylation and stimulation of lipid synthesis has been observed for insulin analogs. […] Taken together ...

[4] = test system: Saos-2; set-up: method as in PMID 10866053; conditions: ref [12]; cited from earlier work
[5] = test system: Sprague-Dawley rats; conditions: rat, in vivo; cited from earlier work
[6] = no reference given, cited from earlier work
Excerpt: These alterations cause a shift in the isoelectric point from pH 5.4 to 6.7. Following subcutaneous administration as a clear solution of pH 4, insulin gla ...

[7] = test system: BT474, T47D, ZR75-1, MDA-MB231, HCC1937; conditions: ref [15]; cited from earlier work
Excerpt: (§1) A correlation between IGF1R autophosphorylation and cell proliferation has been recently assumed by Shukla et al., who observed an enhanced growth of the malignant cell line MCF7 after insulin glargine stimulation. The authors have observed 10% and 50% increases of cellular proliferation at 0.31 and about 15 nmol/L. This effect seemed to be linked to activation of the IGF1R and the MAPK pathway, since siRNA knockdown of IGF1R decreased the response. Unfortunately, no dose-response curve of IGF1R autophosphorylation as well as no proliferation data from siRNA knockdown of IR have ...

[8] = test system: MCF10; conditions: benign cell line; ref [15]; cited from earlier work
Excerpt: as §1

[9] = test system: MCF-7 and SKBR-3 cells; conditions: ref [48]; cited from earlier work
Excerpt: as §1

[10] = test system: MCF7 and other tumor cell lines; conditions: ref [14]; cited from earlier work
Excerpt: as §1

[11] = test system: MCF7; conditions: ref [15], cited from earlier work
Excerpt: as §1

[12] = test system: MCF-7 cells, HCT-116 (colorectal cancer) and PC-3 (prostate cancer) cells; conditions: ref [49]; cited from earlier work
Excerpt: A correlation between IGF1R autophosphorylation and cell proliferation has been recently assumed by Shukla et al., who observed an enhanced growth of the malignant cell line MCF7 after insulin glargine stimulation. The authors have observed 10% and 50% increases of cellular proliferation at 0.31 and about 15 nmol/L. […] Unfortunately, no dose-response curve of IGF1R autophosphorylation as well as no proliferation data from siRNA knockdown of IR have ...

[13] = after injection, healthy subjects and patients with type 1 diabetes; ref [52]–[55]; cited from earlier work
Excerpt: The therapeutic insulin glargine concentrations reported so far are 80- to 200-fold below the total plasma concentrations of IGF-1. […] Therefore, the concentration of free IGF-1 may be within the range of the plasma concentration of insulin glarg ...

[14] = test system: rats; conditions: 2-year life-time, relative to human insulin, ref [59]; cited from earlier work
Excerpt: In these studies plasma insulin concentrations were 15 to 25 nmol/L, covering parent compound and active metabolites. In consequence, actual glargine concentrations may be overestimated, the extent of which depends on the degree of proteolytic degradation at both the injection site and the serum. Quantitative assessment of the insulin glargine metabolism in humans is evolving, and will bring further clarification.

[15] = relative to human insulin, ref [12]

For [Gly^A21,Arg^B31]insulin [Glargine IM], the amount of metabolite [1] is listed as “only in minor quantities” and the “plasma levels of metabolites” value [2] is listed as “minor species only”.

For [Asp^B10]insulin, the “affinity towards IR and IGF1R” value ([3]; IR and IGF1R, relative to human insulin, ref [12]) is given as “higher affinity towards both IR and IGF1R”, the “occupancy time for the IR” value ([3]; ref [12]) is given as “prolonged occupancy time” and the occupancy of receptor ([3]; ref [50]) is given as “prolonged occupancy”. The “proliferation rate of Saos-2” value [4] was “higher proliferation rate” and the “incidence of breast cancer” value [5] was “higher incidence of breast cancer”.

In the case of “Human insulin: human insulin produced by recombinant DNA techniques or enzymatic semisynthesis”, the isoelectric point [6] is given as 5.4 pH, the “response of cell lines to human insulin” value [7] is given as “did not respond” and the “difference between human insulin and insulin glargine” value [8] is given as “did not show any difference”.

In the case of [Gly^A21]insulin [Glargine M1], the “insulin receptor binding relative to human insulin” value [3, 15] is listed as 78% and the “plasma levels of metabolites” value [2] is listed as “significant plasma levels”.

For “[Gly^A21,des-Thr^B30]insulin [Glargine M2]”, the “plasma levels of metabolites” value [2] is listed as “significant plasma levels”.

In the case of “[Gly^A21,Arg^B31,Arg^B32]insulin [Glargine]”, the dissociation rate ([3]; relative to human insulin, ref [12], [51]) is listed as “dissociation rate similar to that of human insulin”, the “insulin receptor binding relative to human insulin” value [3, 15] is listed as 86% and the isoelectric point [6] is listed as 6.7 pH. For the same substance, the solubility ([6]; physiological pH) was “low solubility at physiological pH”, the mitogenic activity [9] was “slightly increased mitogenic activity of insulin glargine without statistical significance” and the “difference between human insulin and insulin glargine” value [8] was “did not show any difference”. For the same substance, the “mitogenic activity relative to human insulin” value [10] was “no evidence for an increased mitogenic activity”, the “increase of cellular proliferation” value ([11]; at 0.31 nmol/L) was 10% and the “increase of cellular proliferation” value ([11]; at about 15 nmol/L) was 50%. For the same substance, the mitogenic potency [12] was “increased mitogenic potency”, the “peak free serum insulin glargine level” value [13] was under 200 pmol/L and the tumor-promoting activity [14] was “without evidence of tumor-promoting activity greater than human insulin”.
